“Also recorded” adds a separate entry of the source.
Assays:
[1] = test system: C57BL/6J male mice after coronary ligation; test: Myocardial infarction by LAD coronary ligation in adult mice: echocardiography, scar volume, myocyte size; assay type: in vivo, mouse
Source text: Animals and Surgical procedures. Mice: Myocardial infarctions were produced in seventy C57BL/6J male mice at 16 weeks of age (25-30 g) by ligation of the left anterior descending (LAD) coronary artery as described (Garner et al., 2003). All animal protocols were reviewed and approved by the University of Texas Southwestern Medical School Institutional Animal Care Advisory Committee and were in compliance with the rules governing animal use as published by the NIH. Mice were sedated in an isoflurane chamber (5%) for 60 seconds until self-designed coaxial mask could be safely applied. The mask supplied continuous isoflurane (2.0%) and oxygen (98.0%) under positive pressure from a Harvard small animal respirator throughout the procedures. Immediately after ligation mice were injected with 200 ng of peptide in […] or […] PBS in collagen intracardially in the infarction border, and with […] PBS intraperitoneally as described (Bock-Marquette et al., 2004). Intraperitoneal injections were repeated every three days after ligation. Effective doses of the peptides were calculated based on optimal in vitro cell migration effect and on biodistribution calculations of full length TB4 (Mora et al., 1997). The inventors administered buprenorphine (0.05 mg/kg) for post-operative pain control. Hearts were removed 1, 14 and 21 days after ligation and processed for further investigations.
Analysis of cardiac function by echocardiography: Echocardiograms to assess systolic function were performed using M-mode and 2-dimensional measurements as described previously (Garner et al., 2003). The measurements represented the average of six selected cardiac cycles from at least two separate scans performed in random-blind fashion with papillary muscles used as a point of reference for consistency in level of scan. End diastole was defined as the maximal left ventricle (LV) diastolic dimension and end systole was defined as the peak of posterior wall motion. Single outliers in each group were omitted for statistical analysis. Fractional shortening (FS), a surrogate of systolic function, was calculated from LV dimensions as follows: FS=[(EDD−ESD)/EDD]×100%. Ejection fraction (EF) was calculated as follows: EF=[(edd^3−esd^3)/edd^3]×100%. EDD, end diastolic dimension; ESD, end systolic dimension.
Calculation of scar volume and myocyte size: Scar volume was calculated after Masson's trichrome staining in six sections through the heart of each mouse using Openlab 3.03 software (Improvision) similar to previously described (Bock-Marquette et al., 2004). Percent area of collagen deposition was measured on each section in blinded fashion and averaged for each mouse.

adult infarcted pigs = test: Ischemia reperfusion (acute myocardial infarction) in pigs with retroinfusion of peptides; assay type: in vivo, pig
Procedure: Pigs: German pigs were purchased from the animal research department of the Ludwig-Maximilians-University (Oberschleissheim, Germany). Animal care and all experimental procedures were performed in accordance to the German and NIH animal legislation guidelines and were approved by the Bavarian Animal Care and Use Committee (AZ 55.2-1-54-2531-26/09). All animal experiments were conducted at the Walter Brendel Centre of Experimental Medicine, University of Munich.
Ischemia reperfusion experiments: Pigs (n=5/experimental group) were anesthetized and instrumented as described previously (Hinkel et al., 2008). Briefly, a balloon was placed in the left anterior descending artery (LAD) distal to the bifurcation of the first diagonal branch and inflated for 60 min. Correct localization of the coronary occlusion and patency of the first diagonal branch were ensured by injection fluoroscopy. Regional application of TB4 peptides or saline solution was performed via selective pressure regulated retroinfusion for 10 min into the anterior interventricular vein (AIV) draining the LAD-perfused myocardium (Kupatt et al., 2005).
Global myocardial function: At day 0 before ischemia induction and after 24 h of reperfusion myocardial function was obtained via Millar pressure tip catheter. Therefore the Millar pressure tip catheter was placed in the left ventricle and left ventricular pressure was recorded for off-line analysis.
Regional myocardial function: 24 hours after induction of ischemia, sternotomy was performed and ultrasonic crystals were placed subendocardial into the area at risk, the infracted area as well as into the Cx perfusion area in a standardized manner. Subendocardial segment shortening (SES) was assessed under resting heart rate as well as at 120 and 150 beats/min atrial pacing (for 1 min/each).
Infarct size and local inflammation: For assessment of infarct size methylene blue was injected in the left ventricle for negative staining of the AAR and tetrazolium red was applied into the LAD for viability staining in the infracted area. Thereafter, left ventricle was cut into slices (5 mm thick), and subjected to digital photography. Planimetry of different slices was conducted via ImageJ for assessment of infarct size in % of AAR. Tissue samples from infarct, area at risk and non-ischemic control were harvested for leukocyte recruitment. Myeloperoxidase assays were performed as previously described (Kupatt et al., 2005).

Akt = test: Western blot anti-phosphoS473-Akt on heart lysates after coronary ligation; assay type: in vivo, mouse; settings: 24 hours after treatment
Source text: (§1) Animals and Surgical procedures. Mice: Myocardial infarctions were produced in seventy C57BL/6J male mice at 16 weeks of age (25-30 g) by ligation of the left anterior descending (LAD) coronary artery as described (Garner et al., 2003). All animal protocols were reviewed and approved by the University of Texas Southwestern Medical School Institutional Animal Care Advisory Committee and were in compliance with the rules governing animal use as published by the NIH. Mice were sedated in an isoflurane chamber (5%) for 60 seconds until self-designed coaxial mask could be safely applied. The mask supplied continuous isoflurane (2.0%) and oxygen (98.0%) under positive pressure from a Harvard small animal respirator throughout the procedures. […] Effective doses of the peptides were calculated based on optimal in vitro cell migration effect and on biodistribution calculations of full length TB4 (Mora et al., 1997). […]
(§2) Western blot. […] The protein fraction was isolated from the interphase of the Trizol purification as recommended by the manufacturer; 10 μg of the total protein was loaded and analyzed by Western blot with protein-specific primary antibodies: VEGF, p-Marcks, p-Akt, and GAPDH (1:100) (Santa Cruz), Connexin43 (1:50) (Invitrogen), N-Cadherin (1:5000) (BD Biosciences) and pS368-Connexin43 (1:1000) (Cell Signaling Technology).

N-Cadherin = test: Western blot of N-Cadherin in infarcted hearts; assay type: in vivo, mouse; settings: infarction core and border zone, 21 days after infarction
Source text: as §1, §2

pS368-Cx43 = test: Western blot of pS368-Connexin43 in infarcted hearts; assay type: in vivo, mouse; settings: ischemic border, 21 days, compared to PBS
Source text: as §1, §2

[2] = 21 days after ligation, compared to PBS
[3] = three weeks after ligation, intracardiac once plus intraperitoneal every three days

Thymosin β4 [TB4]
myocyte diameter / size in the ischemic area [1, 2]: increased myocyte diameter; also recorded: significantly increase the size of surviving cardiomyocytes
scar (Masson's trichrome staining) [1, 2]: significant reduction of the scar
end systolic diameter (ESD) ([1]; after three weeks): significantly decreased
calculated ejection fraction (EF) [1, 3]: 50.9+/−3.6%
mean fractional shortening (FS) [1, 3]: 87.4+/−2.6%
left ventricular end-diastolic pressure (adult infarcted pigs; after ischemia and 24 h reperfusion): 10.4+/−0.8 mmHg
regional myocardial function in the infarcted area (adult infarcted pigs; at rest and under increased heart rate (atrial pacing)): significantly improved
infarct size (adult infarcted pigs; in % of AAR, 60 min occlusion, retroinfusion at onset of reperfusion, n=5): 35+/−3%
post-ischemic inflammatory leukocyte influx (myeloperoxidase activity) (adult infarcted pigs; ischemic heart tissue after retroinfusion): reduced post-ischemic inflammatory leukocyte influx
Akt activation (phosphoS473-Akt) (Akt): increased Akt activation
N-Cadherin expression (N-Cadherin): slight, but non-significant increase; also recorded: slightly upregulated
pS368-Cx43 (Cx43 phosphorylation) (pS368-Cx43): significantly lower; also recorded: decrease in Cx43 phosphorylation
